According to patent US9803450B2, “Use of oligo-quaternary compositions to increase scale inhibitor lifetime in a subterranean formation” (Ecolab USA Inc., priority 2012, dated 2017):

Tests used:
Fathead Minnow = test: Toxicity, LC50 Fathead Minnow; conditions: in vivo
Procedure: Product A was evaluated for toxicity using various tests.

[1] = Compatibility test of scale inhibitors with Product A in synthetic brine; type: physicochemical; parameters: key: C—Clear; P—Precipitate; conditions: 10% scale inhibitor solution mixed with 10% Product A solution in synthetic brine
Source text: Individual solutions (Solutions 1B through 1G) of 10% Product B, C, D, E, F and G, respectively, in a synthetic brine (see the table below showing the synthetic brine composition) were mixed with a 10% solution (Solution 2) of Product A in the synthetic brine. The two sets of solutions were mixed with Solution 2 (i. e., each of Solutions 1B through 1G were mixed with Solution 2) at ratios of 10:90, 30:70, 50:50, 70:30 and 90:10 to indicate that no precipitate would form at any concentration in the mixing concentration range from 10:90 to 90:10. These compatibility screening tests indicate that it is unlikely for any incompatibility to be experienced during deployment and flow back of a squeeze treatment. Any incompatibilities under ambient conditions were observed visually from solution clarity and/or precipitate. The samples were then heated to the test temperature (80° C.) and any further incompatibilities after 2 and 24 hours recorded.

Coreflood = conditions: flow back versus pre-treatment permeability
Procedure: Two corefloods were carried out simultaneously on two Bandera outcrop cores (1.5″ diameter by 3″ length), using a Scaled Solutions dual coreflood apparatus. The composition of these cores is set out in the table below:
Both cores were wrapped with PTFE tape and cased in heat shrink tubing prior to insertion into a Viton sleeve and mounted in a Hassler type core holder with a confining pressure of 1200 psi. Both cores were then flushed with synthetic brine at 1 mL/min for at least 2 hours and until the differential pressure was stable. Brine was flushed at 0.5 mL/min overnight.
Both cores were saturated with synthetic brine under ambient conditions in the forward direction at 1 mL/min for 10 minutes, 2 mL/min for 10 minutes, 3 mL/min for 10 minutes, and 4 mL/min for 2 hours and until the differential pressure was stable. After a stable differential pressure was achieved, the permeability to brine was measured in the forward flow by flooding at 4, 3, 2, 1 mL/min at room temperature.
Brine was then injected into both cores in the forward direction at 1 mL/min until the oven reached a temperature of 80° C. […] Following plug saturation, the permeability of each core to synthetic brine was measured in the forward flow by flooding at 4, 3, 2, and 1 mL/min at 80° C. […]
Both cores were injected with synthetic brine at 2 mL/min with effluent samples being collected. The samples were analyzed by ICP. […]

[2] = ratio printed 10:90 (fifth column)
[3] = ratio printed 30:70 (fourth column)

Molecule: C[N+](C)(C)CC(O)C[N+](C)(C)C.[Cl-].[Cl-] [Product A, 1,3-propandiaminium, 2-hydroxy-N,N,N,N′,N′,N′-hexamethyl-, dichloride]
- LC50 Fathead Minnow (Fathead Minnow): >1,000 mg/L

Molecule: O=P(O)(O)CN(CCCCCCN(CP(=O)(O)O)CP(=O)(O)O)CCCCCCN(CP(=O)(O)O)CP(=O)(O)O [Product B, BHMT phosphonate]
- Clarity of Mixed Solutions ([1]; ratio 10:90 (first column)): C
- Clarity of Mixed Solutions ([1]; ratio 30:70 (second column)): C
- Clarity of Mixed Solutions ([1]; ratio 50:50): C
- Clarity of Mixed Solutions [1, 2]: C
- Clarity of Mixed Solutions [1, 3]: C
- Permeability Recovery (Coreflood): 75%
- Permeability Recovery (Coreflood; listed as Brine/10% Product B): 75%

Molecule: DETA phosphonate [Product C]
- Clarity of Mixed Solutions ([1]; ratio 10:90 (first column)): C
- Clarity of Mixed Solutions ([1]; ratio 30:70 (second column)): C
- Clarity of Mixed Solutions ([1]; ratio 50:50): C
- Clarity of Mixed Solutions [1, 2]: C
- Clarity of Mixed Solutions [1, 3]: C
